Assay results taken from the supplement of paper PMC8882468.
“And” between values parts separate entries of the source, which are not always exact repeats. Equal entries are not always repeated.

Assays:
Assay in all cases: CTG-3D luminescence at 96 h relative to day-0 seeding control (ratio to day 0); higher = more growth / less cytotoxicity
HCI-002 = test system: HCI-002 (organoid from a triple-negative breast cancer xenograft)
Method: (§1)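 PDxO 3D drug screen (set 2), 8-point dose, 96 h; CTG-3D luminescence normalised to day-0 seeding control (mean of 4 wells each).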

MDA-MB-231 = test system: MDA-MB-231
Method: as §1

HCI-015 = test system: HCI-015 (organoid from a triple-negative breast cancer xenograft)
Method: as §1

HCI-023 = test system: HCI-023 (organoid from a triple-negative breast cancer xenograft)
Method: as §1

CC/C(=C(\c1ccc(O)cc1)c1ccc(OCCN(C)C)cc1)c1ccccc1 [4-hydroxytamoxifen]
CTG-3D luminescence at 96 h
Details | 12.5 pM | 0.00025 µM | 0.005 µM | 0.1 µM | 1 µM | 10 µM | 100 µM | 625 fM
HCI-002, days in culture: 127 | – | – | – | – | – | – | 0.0155 | 2.75
HCI-002, days in culture: 155 | – | – | – | – | – | 4.14 | 0.0228 | 4.09
HCI-002, days in culture: 168 | – | – | – | – | – | 0.901 | 0.00411 | 4.11
HCI-015, days in culture: 333 | 1.04 | 1.94 | 1.26 | 1.29 | 1.39 | 0.469 | 0.0144 | 2.19
HCI-015, days in culture: 355 | 3.76 | 3.54 | 1.5 | 2.75 | 0.935 | 1.57 | 0.00605 | 1.84
HCI-015, days in culture: 369 | 2.01 | 1.59 | 2.11 | 1.32 | 1.19 | 0.943 | 0.00584 | 1.66
HCI-023, days in culture: 223 | 2.56 | 1.54 | 1.73 | 1.73 | 1.16 | 1.64 | 0.0104 | 2.1
HCI-023, days in culture: 238 | 1.29 | 1.34 | 1.35 | 1.29 | 1.4 | 1.46 | 0.00895 | 1.43
HCI-023, days in culture: 252 | 2.34 | 1.72 | 1.66 | 1.88 | 1.73 | 1.63 | 0.00241 | 1.66

MDA-MB-231
Details | CTG-3D luminescence at 96 h
12.5 pM | 5.74 and 4.89
0.00025 µM | 5.63 and 4.98
0.005 µM | 5.56 and 5.21
0.1 µM | 5.42 and 5.04
1 µM | 5.45 and 5.21
10 µM | 4.78 and 4.53
100 µM | 0.0254 and 0.0304
625 fM | 5.5 and 5.05
